What all share (assay type): functional
In experiment [1] the test system is Abutilon theophrasti. Nature of the experiment: Herbicidal activity against two to three-leaf stage Abutilon theophrasti (velvetleaf) assessed as inhibition of plant growth at 150 g/ha in greenhouse by post-emergence herbicidal activity assay. As to conditions: read-out: GI.
Experiment [2] relates to Brassica rapa subsp. oleifera. Nature of the experiment: Herbicidal activity against two to three-leaf stage Brassica rapa subsp. oleifera assessed as inhibition of plant growth at 150 g/ha in greenhouse by postemergence herbicidal activity assay. To be noted: post-emergence, read-out: GI.
In experiment [3] the test system is Eclipta prostrata. Nature of the experiment: Herbicidal activity against two to three-leaf stage Eclipta prostrata assessed as inhibition of plant growth at 150 g/ha in greenhouse by post-emergence herbicidal activity assay. To be noted: read-out: GI.
Experiment [4] relates to Amaranthus retroflexus. Nature of the experiment: Herbicidal activity against 2 to 3 leaf stage Amaranthus retroflexus assessed as inhibition of plant growth at 150 g/ha in greenhouse by postemergence herbicidal activity assay. To be noted: post-emergence, read-out: GI.
Experiment [5] deals with Brassica rapa subsp. oleifera. Nature of the experiment: Herbicidal activity against two to three-leaf stage Brassica rapa subsp. oleifera assessed as inhibition of plant growth at 450 g/ha in greenhouse by postemergence herbicidal activity assay. To be noted: post-emergence, read-out: GI.
Experiment [6] has as its system Eclipta prostrata. Briefly: Herbicidal activity against two to three-leaf stage Eclipta prostrata assessed as inhibition of plant growth at 450 g/ha in greenhouse by post-emergence herbicidal activity assay. To be noted: read-out: GI.
Experiment [7] deals with Amaranthus retroflexus. Briefly: Herbicidal activity against 2 to 3 leaf stage Amaranthus retroflexus assessed as inhibition of plant growth at 450 g/ha in greenhouse by postemergence herbicidal activity assay. To be noted: post-emergence, read-out: GI.
Experiment [8] has as its system Abutilon theophrasti. Briefly: Herbicidal activity against two to three-leaf stage Abutilon theophrasti (velvetleaf) assessed as inhibition of plant growth at 450 g/ha in greenhouse by post-emergence herbicidal activity assay. As to conditions: read-out: GI.

As for `COP(=O)(OC)C(OC(=O)COc1cccc(Cl)c1Cl)c1ccco1` (stereo not drawn), the inhibition of growth at 150 g/ha worked out at 20% with Abutilon theophrasti [1], 30% in experiment [2], 35% in the experiment on Eclipta prostrata [3] and 25% with Amaranthus retroflexus [4].
As for `COP(=O)(OC)C(OC(=O)COc1ccccc1F)c1ccco1` (stereo not drawn), the inhibition of growth at 150 g/ha with Abutilon theophrasti [1] worked out at 40%; in experiment [2], 75%; with Eclipta prostrata [3], 60%; in the experiment with Amaranthus retroflexus [4], 60%.
`COP(=O)(OC)C(OC(=O)COc1cc(Cl)c(Cl)cc1Cl)c1cccs1` (stereo not drawn): the inhibition of growth at 150 g/ha (in the experiment on Abutilon theophrasti [1]; in experiment [2]; in the experiment with Eclipta prostrata [3]; in the experiment on Amaranthus retroflexus [4]) was 80% in each case. The inhibition of growth at 450 g/ha in experiment [5] was determined as 95%; in the experiment with Eclipta prostrata [6] it was 50%; in the experiment with Amaranthus retroflexus [7], 90%; in the experiment with Abutilon theophrasti [8] it was 85%.
In the case of `COP(=O)(OC)C(OC(=O)COc1ccc(Cl)cc1C)c1cccs1` (stereo not drawn), the inhibition of growth at 150 g/ha in the experiment with Abutilon theophrasti [1] was 60%; in experiment [2] it was 80%; in the experiment on Eclipta prostrata [3], 75%; with Amaranthus retroflexus [4] it was 80%. Besides, the inhibition of growth at 450 g/ha in experiment [5] worked out at 95%; in the experiment with Eclipta prostrata [6], 100%; in the experiment on Amaranthus retroflexus [7], 100%; in the experiment on Abutilon theophrasti [8] it was 90%.
Take `COP(=O)(OC)C(OC(=O)COc1ccccc1)c1ccco1` (stereo not drawn): the inhibition of growth at 150 g/ha in the experiment with Abutilon theophrasti [1] amounted to 22%; in experiment [2], 28%; in the experiment on Eclipta prostrata [3], 31%; with Amaranthus retroflexus [4], 6%.
For `COP(=O)(OC)C(OC(=O)COc1ccc(C#N)cc1)c1cccs1` (stereo not drawn), the inhibition of growth at 150 g/ha in the experiment on Abutilon theophrasti [1] worked out at 30%; in experiment [2] it was 30%; in the experiment on Eclipta prostrata [3], 0%; in the experiment with Amaranthus retroflexus [4], 40%. In addition, the inhibition of growth at 450 g/ha in experiment [5] was 40%; in the experiment with Eclipta prostrata [6], 60%; in the experiment on Amaranthus retroflexus [7], 40%; in the experiment with Abutilon theophrasti [8], 40%.
As for `COP(=O)(OC)C(OC(=O)COc1ccc(C(F)(F)F)cc1)c1cccs1` (stereo not drawn), the inhibition of growth at 150 g/ha with Abutilon theophrasti [1] stood at 15%; in experiment [2], 20%; in the experiment with Eclipta prostrata [3], 30%; in the experiment with Amaranthus retroflexus [4] it was 20%.
As to `COP(=O)(OC)C(OC(=O)COc1ccc(Cl)cc1)c1cccs1` (stereo not drawn), the inhibition of growth at 150 g/ha (in the experiment with Abutilon theophrasti [1]; in experiment [2]; with Eclipta prostrata [3]; in the experiment on Amaranthus retroflexus [4]) was 70% in each case. For the same compound, the inhibition of growth at 450 g/ha amounted to 90% in experiment [5], 30% in the experiment with Eclipta prostrata [6], 80% with Amaranthus retroflexus [7] and 85% in the experiment on Abutilon theophrasti [8].
For the compound `COP(=O)(OC)C(OC(=O)COc1ccc(F)cc1Cl)c1ccco1` (stereo not drawn), the inhibition of growth at 150 g/ha with Abutilon theophrasti [1] turned out to be 75%; in experiment [2] it was 85%; in the experiment on Eclipta prostrata [3] it was 75%; in the experiment on Amaranthus retroflexus [4], 90%.
Turning to `COP(=O)(OC)C(OC(=O)COc1ccccc1Cl)c1cccs1` (stereo not drawn), the inhibition of growth at 150 g/ha (in the experiment with Abutilon theophrasti [1]; in experiment [2]; in the experiment on Eclipta prostrata [3]; in the experiment with Amaranthus retroflexus [4]) was 0% each time. Moreover, the inhibition of growth at 450 g/ha stood at 30% in experiment [5], 85% with Eclipta prostrata [6], 50% in the experiment on Amaranthus retroflexus [7] and 40% with Abutilon theophrasti [8].
On to `COP(=O)(OC)C(OC(=O)COc1cccc(Cl)c1Cl)c1cccs1` (stereo not drawn), for which the inhibition of growth at 150 g/ha is 0% with Abutilon theophrasti [1], 0% in experiment [2], 40% in the experiment on Eclipta prostrata [3] and 40% in the experiment on Amaranthus retroflexus [4]. Further, the inhibition of growth at 450 g/ha in experiment [5] came to 40%; in the experiment on Eclipta prostrata [6], 85%; with Amaranthus retroflexus [7] it was 60%; with Abutilon theophrasti [8] it was 40%.
On to `COP(=O)(OC)C(OC(=O)COc1cccc(C)c1C)c1ccco1` (stereo not drawn), for which the inhibition of growth at 150 g/ha is 50% in the experiment on Abutilon theophrasti [1], 40% in experiment [2], 30% with Eclipta prostrata [3] and 50% in the experiment with Amaranthus retroflexus [4].
For `COP(=O)(OC)C(OC(=O)COc1cc(Cl)c(Cl)cc1Cl)c1ccco1` (stereo not drawn), the inhibition of growth at 150 g/ha in the experiment with Abutilon theophrasti [1] stood at 75%; in experiment [2], 85%; in the experiment on Eclipta prostrata [3] it was 80%; in the experiment on Amaranthus retroflexus [4] it was 75%.
Regarding `COP(=O)(OC)C(OC(=O)COc1ccc(Cl)cc1F)c1cccs1` (stereo not drawn), the inhibition of growth at 150 g/ha (with Abutilon theophrasti [1]; in experiment [2]; with Eclipta prostrata [3]; in the experiment on Amaranthus retroflexus [4]) was 70% throughout. The inhibition of growth at 450 g/ha was determined as 75% in experiment [5], 90% with Eclipta prostrata [6], 75% with Amaranthus retroflexus [7] and 75% with Abutilon theophrasti [8].
With `COP(=O)(OC)C(OC(=O)COc1ccc(Cl)c(C)c1)c1ccco1` (stereo not drawn), the inhibition of growth at 150 g/ha in the experiment on Abutilon theophrasti [1] is 80%; in experiment [2], 80%; in the experiment on Eclipta prostrata [3] it was 75%; in the experiment on Amaranthus retroflexus [4], 80%.
As to `COP(=O)(OC)C(OC(=O)COc1ccc(F)cc1F)c1ccco1` (stereo not drawn), the inhibition of growth at 150 g/ha with Abutilon theophrasti [1] was determined as 40%; in experiment [2] it was 60%; in the experiment on Eclipta prostrata [3] it was 40%; with Amaranthus retroflexus [4] it was 50%.
Turning to `COP(=O)(OC)C(OC(=O)COc1ccc(Cl)cc1)c1ccco1` (stereo not drawn), the inhibition of growth at 150 g/ha with Abutilon theophrasti [1] turned out to be 75%; in experiment [2], 75%; in the experiment on Eclipta prostrata [3] it was 70%; in the experiment with Amaranthus retroflexus [4], 70%.
`COP(=O)(OC)C(OC(=O)COc1ccc(Cl)c(C)c1)c1cccs1` (stereo not drawn): the inhibition of growth at 150 g/ha in the experiment on Abutilon theophrasti [1] was found to be 0%; in experiment [2], 0%; with Eclipta prostrata [3], 50%; in the experiment on Amaranthus retroflexus [4], 50%. Further, the inhibition of growth at 450 g/ha in experiment [5] amounted to 60%; with Eclipta prostrata [6] it was 70%; with Amaranthus retroflexus [7], 60%; with Abutilon theophrasti [8] it was 60%.
Take `COP(=O)(OC)C(OC(=O)COc1ccc(Cl)cc1C)c1ccco1` (stereo not drawn): the inhibition of growth at 150 g/ha in the experiment on Abutilon theophrasti [1] was found to be 80%; in experiment [2], 85%; with Eclipta prostrata [3], 60%; in the experiment on Amaranthus retroflexus [4] it was 80%.
With `COP(=O)(OC)C(OC(=O)COc1ccccc1Cl)c1ccco1` (stereo not drawn), the inhibition of growth at 150 g/ha with Abutilon theophrasti [1] was found to be 0%; in experiment [2], 40%; with Eclipta prostrata [3] it was 30%; in the experiment on Amaranthus retroflexus [4] it was 40%.
In the case of `COP(=O)(OC)C(OC(=O)COc1ccc(C)cc1)c1ccco1` (stereo not drawn), the inhibition of growth at 150 g/ha with Abutilon theophrasti [1] turned out to be 32%; in experiment [2], 36%; with Eclipta prostrata [3], 30%; in the experiment with Amaranthus retroflexus [4], 23%.
Turning to `COP(=O)(OC)C(OC(=O)COc1cccc(C)c1)c1ccco1` (stereo not drawn), the inhibition of growth at 150 g/ha in the experiment with Abutilon theophrasti [1] came out at 39%; in experiment [2] it was 37%; in the experiment with Eclipta prostrata [3] it was 30%; with Amaranthus retroflexus [4], 36%.
Take `COP(=O)(OC)C(OC(=O)COc1ccc(C(F)(F)F)cc1)c1ccco1` (stereo not drawn): the inhibition of growth at 150 g/ha (with Abutilon theophrasti [1]; in experiment [2]; in the experiment with Eclipta prostrata [3]; in the experiment on Amaranthus retroflexus [4]) was 0% each time.
On to `COP(=O)(OC)C(OC(=O)COc1ccccc1F)c1cccs1` (stereo not drawn), for which the inhibition of growth at 150 g/ha stood at 0% with Abutilon theophrasti [1], 0% in experiment [2], 20% in the experiment with Eclipta prostrata [3] and 15% in the experiment on Amaranthus retroflexus [4].
As for `COP(=O)(OC)C(OC(=O)COc1cccc(C(F)(F)F)c1)c1cccs1` (stereo not drawn), the inhibition of growth at 150 g/ha with Abutilon theophrasti [1] is 20%; in experiment [2], 30%; with Eclipta prostrata [3], 15%; in the experiment on Amaranthus retroflexus [4] it was 20%.
`COP(=O)(OC)C(OC(=O)COc1ccc(C#N)cc1)c1ccco1` (stereo not drawn): the inhibition of growth at 150 g/ha came to 40% in the experiment with Abutilon theophrasti [1], 40% in experiment [2], 30% in the experiment on Eclipta prostrata [3] and 50% with Amaranthus retroflexus [4].
In the case of `COP(=O)(OC)C(OC(=O)COc1ccc(Br)cc1)c1ccco1` (stereo not drawn), the inhibition of growth at 150 g/ha stood at 40% with Abutilon theophrasti [1], 75% in experiment [2], 60% with Eclipta prostrata [3] and 60% in the experiment with Amaranthus retroflexus [4].
In the case of `COP(=O)(OC)C(OC(=O)COc1ccc(Cl)cc1F)c1ccco1` (stereo not drawn), the inhibition of growth at 150 g/ha with Abutilon theophrasti [1] came out at 70%; in experiment [2], 75%; with Eclipta prostrata [3] it was 70%; in the experiment on Amaranthus retroflexus [4], 60%.
Consider `COP(=O)(OC)C(OC(=O)COc1cccc(C(F)(F)F)c1)c1ccco1` (stereo not drawn), for which the inhibition of growth at 150 g/ha (in the experiment with Abutilon theophrasti [1]; in experiment [2]; in the experiment with Eclipta prostrata [3]; with Amaranthus retroflexus [4]) was 0% in each case.

Source of the values: ChEMBL document CHEMBL3044788, “α-(Substituted-phenoxyacetoxy)-α-heterocyclylmethylphosphonates: synthesis, herbicidal activity, inhibition on pyruvate dehydrogenase complex (PDHc), and application as postemergent herbicide against broadleaf weeds” (J Agric Food Chem, 2013).
